Data from article PMC9762759, “High-throughput discovery of novel small-molecule inhibitors of acid Ceramidase” (Journal of Enzyme Inhibition and Medicinal Chemistry, 2022).

Experiments:
[1] = target: T1, acid ceramidase (AC) (Homo sapiens, UniProt Q13510); test: Acid ceramidase HTS assay, 384-well fluorogenic (RBM14-C12), cell lysates; assay type: biochemical; settings: for IC50: dose-titration, 8-point two-fold dilution from 200 micromolar, 95% confidence interval in brackets, means of three replicates; for inhibition at 20 µM: primary assay, single-point concentration of 20 μM, lysates of AC-overexpressing A375 melanoma cells, substrate RBM14-C12 20 µM, pH 4.5
T1 construct: expressed in transfected cells
T1 sequence (Q13510 22-395): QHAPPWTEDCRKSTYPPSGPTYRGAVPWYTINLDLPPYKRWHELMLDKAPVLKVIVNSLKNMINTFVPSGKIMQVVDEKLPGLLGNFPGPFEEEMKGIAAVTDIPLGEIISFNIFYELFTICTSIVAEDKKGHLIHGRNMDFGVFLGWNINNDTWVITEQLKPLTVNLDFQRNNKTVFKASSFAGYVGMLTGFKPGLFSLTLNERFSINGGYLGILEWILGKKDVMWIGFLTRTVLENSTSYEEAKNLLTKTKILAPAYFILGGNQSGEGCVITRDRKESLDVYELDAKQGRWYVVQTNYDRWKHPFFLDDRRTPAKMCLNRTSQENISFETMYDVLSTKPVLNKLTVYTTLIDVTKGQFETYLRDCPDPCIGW
Method: To start with, the final reaction volume was adapted from 100 µL (96-well-format) to 32 µL (384 well-format) with a final concentration of substrate of 20 µM. Next, protein concentration was adjusted using cell lysates of AC-overexpressing A375 melanoma cells. Ideally, the optimal amount of protein is the one that ensures reaction linearity over a period of time together with less than 10% of substrate depletion, in order to assume that the enzyme operates at steady-state conditions. Thus, different amounts of cell lysates were mixed with the substrate and product formation was measured over 1 h. […] Finally, an amount of 0.4 µg of protein was chosen, as higher amounts of proteins were not in the linear portion whereas lower amounts would compromise the signal window. The optimal incubation time of the reaction mixture was next explored. […] As a first validation step, we performed a control run consisting of 60 wells representing AC activity and 60 wells representing the signal in absence of the enzyme. […] The calculated coefficients of variation (CV) for both the high and low controls were 6.08% and 17.1% respectively.
After having successfully established the optimal reaction conditions in a 384-well format, we employed this newly miniaturised AC assay in a pilot screen against a library of 4100 compounds. The screen was carried out at a single dose of 20 µM for each library compound in 6% DMSO (v/v) and in duplicate. The acid ceramidase inhibitor SOCLAC was used as a pharmacological control for the assay. The Z’-factor per plate were consistent with those obtained during the initial validation. […] An example hit map from one screening plate is shown (Figure 2(C)). The inhibitory activity of these hits was then validated in an additional assay performed at a single-point concentration in triplicates.
To confirm the results from the primary screening, top hits were cherry-picked and tested in a concentration-dependent response assay with triplicates per sample. Thus, 101 compounds were then subjected to 8-points two-fold dilution series starting at a maximum concentration of 200 micromolar.
(§1) The A375 cell line stably overexpressing ASAH1 under the control of a tetracycline/doxycycline-responsive promoter was kindly provided by Dr. Carmen Bedia and Prof. Thierry Levade[17]. The antibiotic selection of this cell line was performed with blasticidin (3 µg/mL) and hygromycin B (250 µg/mL). Ectopic expression of AC was induced with doxycycline at 1 µg/mL for 24 h before use. Cells were suspended in the appropriate volume of a 0.25 M saccharose solution with the proteases inhibitors aprotinin (1 mg/mL), leupeptin (1 mg/mmL) and PMSF (100 mM). The suspension was submitted to three cycles of a 5 s sonication (probe) at 10 watts/5 s resting on ice. The cell lysate was centrifuged at 600 g for 5 min. The supernatant was collected and protein concentration was determined with BSA as a standard using the bicinchoninic acid (BCA) protein determination kit (Thermo Scientific) according to the manufacturer’s instructions.
A previously described 96-well plate assay[25] was miniaturised into a 384-well plate format with a final reaction volume of 32 µL. Plated compounds were diluted with a mixture of DMSO/H2O (1.6 µL/18 µL), and after centrifugation, 3.2 µL were dispensed into a new 384-well plate, so that the final concentration of the compound in the final reaction volume of 32 µL was 20 µM and the DMSO content of the assay was 1%. Next, 20.8 µL of a substrate solution of RBM14-C12 in sodium acetate buffer (25 mM, pH 4.5) was added for a final concentration of 20 µM, followed by the addition of 8 µL of a 0.25 M sucrose solution of cell lysates from AC-overexpressing A375 melanoma cells containing 0.4 µg of protein The reaction was terminated after 60 min incubation at 37 °C by adding 8 µL of methanol. Oxidation was performed by treatment with 32 µL of a [2.5 mg/mL] solution of NaIO4 in 100 mM glycine-NaOH buffer (pH 10.6). […]

[2] = target: T2, recombinant human NC (rhNC) (Homo sapiens, UniProt Q9NR71); test: Neutral ceramidase assay, fluorogenic substrate RBM14-C24:1; assay type: biochemical; settings: single-point concentration of 50 μM; means of three replicates
T2 construct: purchased R&D Systems
T2 sequence (Q9NR71 whole entry): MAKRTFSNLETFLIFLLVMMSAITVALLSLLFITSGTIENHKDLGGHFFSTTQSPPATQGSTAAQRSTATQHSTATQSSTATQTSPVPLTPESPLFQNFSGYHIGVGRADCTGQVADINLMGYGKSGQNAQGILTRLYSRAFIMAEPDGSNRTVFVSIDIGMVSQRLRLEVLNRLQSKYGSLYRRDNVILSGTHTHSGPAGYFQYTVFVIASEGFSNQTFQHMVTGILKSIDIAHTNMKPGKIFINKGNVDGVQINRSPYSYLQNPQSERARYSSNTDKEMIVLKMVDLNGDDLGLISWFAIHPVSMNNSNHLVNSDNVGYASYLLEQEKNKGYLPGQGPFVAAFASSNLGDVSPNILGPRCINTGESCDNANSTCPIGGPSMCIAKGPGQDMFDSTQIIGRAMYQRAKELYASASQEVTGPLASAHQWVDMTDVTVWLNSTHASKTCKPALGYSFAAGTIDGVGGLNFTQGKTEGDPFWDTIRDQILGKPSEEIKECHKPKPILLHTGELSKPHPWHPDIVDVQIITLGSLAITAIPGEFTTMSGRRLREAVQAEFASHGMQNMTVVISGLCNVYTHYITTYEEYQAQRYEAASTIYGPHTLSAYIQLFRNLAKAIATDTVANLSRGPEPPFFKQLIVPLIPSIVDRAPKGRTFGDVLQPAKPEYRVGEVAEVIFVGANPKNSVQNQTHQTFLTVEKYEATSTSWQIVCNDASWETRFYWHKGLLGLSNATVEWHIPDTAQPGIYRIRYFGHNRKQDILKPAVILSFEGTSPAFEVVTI
Method: As mentioned above, hydrolysis of ceramides occurs by the action of ceramidases which are encoded by five known genes and are distinguished by the pH required for optimal activity. A common problem with AC inhibitors, especially those one with a scaffold related to the structure of ceramide, is the lack of selectivity over other ceramidases. Thus, to discard a selectivity issue, the activity of nine detected hits against neutral ceramidase was next explored at 50 µM. Activity over NC was tested using recombinant human NC (rhNC) and a specific NC substrate bearing a nervonic acid amide (RBM14-C24:1)[30]. Remarkably, none of the molecules elicited a significant inhibitory activity, thereby confirming the selective inhibition of AC over NC (Supplemental Table 1).
The NC assay was performed in 96-well plates at a final volume of 100 µL/well. Reaction buffers was 25 mM phosphate buffer 150 mM NaCl 1% (NaChol) pH 7.4. The reaction mixtures contained 25 µL/well of protein (5 ng recombinant NC R&D Systems, >95% pure), 70 µL/well of substrate (prepared from 4 mM stock solutions in ethanol) and 5 µL/well of inhibitor (prepared from 1 mM stock solutions in DMSO/H2O). Reaction mixtures were incubated at 37 °C for 1 h and reactions were stopped with 25 µL/well of MeOH followed by 100 µL/well of NaIO4 (2.5 mg/mL in 100 mM glycine-NaOH buffer, pH 10.6). After incubation at 37 °C for 1 h in the dark, 100 µL/well of 100 mM glycine-NaOH buffer (pH 10.6) was added and fluorescence was measured spectrophotometrically at excitation and emission wavelenght of 355 and 460 nm, respectively. The same reaction mixtures without enzymes were used as blanks.

[3] = target: T3, acid ceramidase in AC overexpressing A375 cells (Homo sapiens, UniProt Q13510); test: Fluorogenic ceramidase activity assay in intact cells (RBM14-C12); assay type: cell-based; settings: for inhibition at 20 µM: A-375, single-point concentration of 20 µM, 3 h, triplicate
T3 construct: expressed in transfected cells
T3 sequence (Q13510 22-395): T1 sequence (Q13510 22-395)
Method: Cell-based assays allow evaluating biological activity in a more physiologically relevant system that also considers additional factors that might have a positive impact on inhibitory potency such as permeabilization through cellular membranes, metabolisation or concentration by intracellular compartmentalisation. Thus, the activity of the nine selected hits was next examined in intact cells using AC overexpressing A375 cells and the fluorogenic substrate RBM14-C12. First, compounds were tested in a primary screening assay. Measurements were performed in triplicated at a single-point concentration of 20 µM.
as §1
To determine activity in intact cells, 2 × 10^4 cells/well were seeded in 96-well plates 24 h prior to the assay and maintained at 37 °C and 5% CO2. Overexpression of AC was induced with doxycycline at 1 µg/mL for 24 h. […] After incubation at 37 °C for 1 h in the dark, 100 µL/well of 100 mM glycine-NaOH buffer (pH 10.6) were added and fluorescence was measured spectrophotometrically at excitation and emission wavelengths of 355 and 460 nm, respectively. […]

| IC50 [1] [µM] | inhibition at 20 µM [1] [%] | inhibition at 50 µM [2] [%] | inhibition at 20 µM [3] [%] | IC50 ([3]; interval (24.3–44.7) printed, read-out: IC50 in the cell-based assay) [µM] | SMILES |
| --- | --- | --- | --- | --- | --- |
| 7.9 | 53.8 | 8.5 | – | – | CC1CCCCN1C(=O)Nc1ccc(Oc2ccccc2)cc1 (centres unmarked) [W000113402_O07] |
| 23.9 | 59.2 | 20.8 | – | – | Cc1ccc(CN2CC(C(=O)N(C)Cc3ccc(Cl)c(Cl)c3)CC2=O)cc1 (centres unmarked) [W000113407_J11] |
| 36.7 | 60.4 | -1.3 | – | – | CCCCc1ccc(C(=O)CCC2C(=O)c3ccccc3C2=O)cc1 [W000113414_D15] |
| 11.1 | 61.4 | -8.9 | 32 | – | Cc1cc(O[C@H](c2ccc(C(=O)NC[C@H](O)C(=O)O)s2)C(C)C)cc(C)c1-c1ccc(C(F)(F)F)cc1 [W000113414_H19] |

The remaining lines, values behind:

| SMILES | IC50 [1] [µM] | inhibition at 20 µM [1] [%] | inhibition at 50 µM [2] [%] | inhibition at 20 µM [3] [%] | IC50 ([3]; interval (24.3–44.7) printed, read-out: IC50 in the cell-based assay) [µM] |
| --- | --- | --- | --- | --- | --- |
| CC(OC(=O)c1c2c(nc3ccccc13)/C(=C/c1cccs1)CC(C(C)(C)C)C2)C(=O)Nc1ccc(C(N)=O)cc1 (centres unmarked) [W000113400_H06] | 15.8 | 41.7 | 35.6 | – | – |
| CN(CCc1ccccn1)S(=O)(=O)c1cccc(Br)c1 [W000113402_C12] | 10.6 | 75.5 | -5.9 | 53 | 32 |
| C=CCNC(=S)Nc1ccc(Cl)c([N+](=O)[O-])c1 [W000113403_I18] | 10.6 | 63.4 | 23.4 | – | – |
| CC(C)(C)CC(=O)N1CCN(c2cccc(C(F)(F)F)c2)CC1 [W000113414_C16] | 48.9 | 59 | -4.1 | – | – |
| CCC(CC)(c1ccc(OCC2(C(C)(C)C)OCCO2)c(C)c1)c1cc(C)c2oc(C(=O)NCC(=O)O)cc2c1 [W000113414_I13] | – | 67.4 | 22.9 | – | – |
